Source: paper PMC6117091, “The C. difficile clnRAB operon initiates adaptations to the host environment in response to LL-37” (PLoS Pathogens, 2018)
In brackets after ≈: the same amount, converted by molar mass.

How the values were obtained:
[1] = test system: C. difficile clnR mutant; experiment: clnR and clnA expression by qRT-PCR in LL-37; format: cell-based, Clostridioides difficile; settings: 2 µg/ml LL-37, BHIS
Experimental: Fig 4 ClnR acts as a conditional repressor and inducer of clnRAB expression. […] RNA samples were collected and processed for qRT-PCR analysis as described in Methods. Graphs show the mean mRNA expression levels of A) clnR and B) clnA relative to expression in strain 630Δerm in BHIS alone. […] Data were analyzed by two-way ANOVA and Tukey’s multiple comparisons test, with comparisons indicated by brackets. * indicates p < 0.05, ** indicates p ≤ 0.0001.

[2] = test system: C. difficile clnAB mutant; experiment: Growth in minimal medium with LL-37, maximum doubling time; settings: mean ± SD, n ≥ 3
[3] = test system: TcdA in C. difficile 630Δerm (parent strain); experiment: TcdA western blot; settings: 2 μg/ml LL-37, TY medium, 24 h, 37°C; three replicates
[4] = test system: C. difficile clnAB Tn::clnRAB; experiment: qRT-PCR of selected RNA-seq transcripts in LL-37; settings: 2 µg/ml LL-37; normalized to 630∆erm in BHIS; mean ± SEM, n ≥ 3
[5] = test system: C. difficile 630Δerm; experiment: Growth in minimal medium with LL-37, maximum doubling time; settings: mean ± SD, n ≥ 3
[6] = test system: C. difficile clnR Tn::clnRAB; experiment: qRT-PCR of selected RNA-seq transcripts in LL-37; settings: 2 µg/ml LL-37; normalized to 630∆erm in BHIS; mean ± SEM, n ≥ 3
[7] = test system: TcdA in C. difficile clnR and clnAB mutants; experiment: TcdA western blot; settings: 2 μg/ml LL-37, TY medium, 24 h, 37°C
[8] = test system: C. difficile clnR and clnAB mutants; experiment: Growth in minimal medium with LL-37 (growth curves); settings: 0.5 μg/ml LL-37; base MM, MM with mannitol, NAG, EA; versus parent strain
[9] = test system: C. difficile clnAB Tn::clnRAB; experiment: Growth in minimal medium with LL-37, maximum doubling time; settings: mean ± SD, n ≥ 3
[10] = test system: C. difficile clnR mutant; experiment: qRT-PCR of selected RNA-seq transcripts in LL-37; settings: 2 µg/ml LL-37; normalized to 630∆erm in BHIS; mean ± SEM, n ≥ 3
[11] = test system: clnR expression in C. difficile 630Δerm; experiment: clnR expression by qRT-PCR after exposure to antimicrobials (induction specificity); settings: 2 μg/ml, BHIS; normalized to 630Δerm in BHIS without antimicrobials; mean of three replicates ± SEM
[12] = test system: C. difficile clnR mutant (MC885); experiment: Minimum inhibitory concentration (MIC); format: cell-based, Clostridioides difficile; settings: Mueller-Hinton Broth, 24 h, 37°C, anaerobic, ~5 x 10^5 CFU/ml
Experimental: (§1) Minimum inhibitory concentrations (MIC) were determined as previously described. […] Briefly, overnight cultures of C. difficile strains were diluted 1:50 in Mueller-Hinton Broth (Difco) and grown to OD600 of 0.45 (~5 x 10^7 CFU/ml). Cultures were then diluted 1:10 in MHB and seeded at a further 1:10 dilution in a round-bottom 96-well plate prepared with serial dilutions of antimicrobials for a starting concentration of ~5 x 10^5 CFU/ml. Plates were incubated for 24 h at 37°C in the anaerobic chamber.

[13] = test system: C. difficile clnAB mutant (MC935); experiment: Minimum inhibitory concentration (MIC); format: cell-based, Clostridioides difficile; settings: Mueller-Hinton Broth, 24 h, 37°C, anaerobic, ~5 x 10^5 CFU/ml
Experimental: as §1

[14] = test system: C. difficile 630Δerm; experiment: Minimum inhibitory concentration (MIC); format: cell-based, Clostridioides difficile; settings: Mueller-Hinton Broth, 24 h, 37°C, anaerobic, ~5 x 10^5 CFU/ml
Experimental: as §1

[15] = test system: C. difficile clnR and clnA mutants; experiment: Growth in BHIS with LL-37; settings: 2.5 μg/ml LL-37 in BHIS, versus parent strain
[16] = test system: tcdA, tcdB, sigD, tcdR, ilvC, CD0341 expression in C. difficile 630Δerm; experiment: Toxin and regulator gene expression by qRT-PCR in LL-37
[17] = test system: C. difficile 630Δerm; experiment: qRT-PCR of selected RNA-seq transcripts in LL-37; settings: 2 µg/ml LL-37; normalized to 630∆erm in BHIS; mean ± SEM, n ≥ 3
[18] = test system: C. difficile clnR Tn::clnRAB; experiment: Growth in minimal medium with LL-37, maximum doubling time; settings: mean ± SD, n ≥ 3
[19] = 0.5 µg/ml LL-37, MM + 30 mM NAG, § p < 0.05 vs no LL-37
[20] = 0.5 µg/ml LL-37, MM + 30 mM ethanolamine
[21] = 0.5 µg/ml LL-37, MM + 30 mM fructose
[22] = 0.5 µg/ml LL-37, MM + 30 mM glucose
[23] = 0.5 µg/ml LL-37, MM + 30 mM mannitol
[24] = 0.5 µg/ml LL-37, MM + 30 mM mannose
[25] = 2 μg/ml LL-37, BHIS, log phase, wild-type cells, p < 0.05
[26] = 2 µg/ml LL-37, normalized to 630∆erm in BHIS, mean of three replicates ± SEM

## CC[C@H](C)[C@H](NC(=O)[C@H](CCCCN)NC(=O)[C@H](CCC(=O)O)NC(=O)[C@H](CCCCN)NC(=O)[C@H](CO)NC(=O)[C@H](CCCCN)NC(=O)[C@H](CCCNC(=N)N)NC(=O)[C@H](Cc1ccccc1)NC(=O)[C@H](Cc1ccccc1)NC(=O)[C@H](CC(=O)O)NC(=O)CNC(=O)[C@H](CC(C)C)NC(=O)[C@@H](N)CC(C)C)C(=O)NCC(=O)N[C@@H](CCCCN)C(=O)N[C@@H](CCC(=O)O)C(=O)N[C@@H](Cc1ccccc1)C(=O)N[C@@H](CCCCN)C(=O)N[C@@H](CCCNC(=N)N)C(=O)N[C@H](C(=O)N[C@H](C(=O)N[C@@H](CCC(N)=O)C(=O)N[C@@H](CCCNC(=N)N)C(=O)N[C@H](C(=O)N[C@@H](CCCCN)C(=O)N[C@@H](CC(=O)O)C(=O)N[C@@H](Cc1ccccc1)C(=O)N[C@@H](CC(C)C)C(=O)N[C@@H](CCCNC(=N)N)C(=O)N[C@@H](CC(N)=O)C(=O)N[C@@H](CC(C)C)C(=O)N[C@H](C(=O)N1CCC[C@H]1C(=O)N[C@@H](CCCNC(=N)N)C(=O)N[C@H](C(=O)N[C@@H](CCC(=O)O)C(=O)N[C@@H](CO)C(=O)O)[C@@H](C)O)C(C)C)[C@@H](C)CC)C(C)C)[C@@H](C)CC [LL-37]
[1]
  clnR and clnA expression (in words): no longer induced in the clnR mutant
[2]; [19]
  Doubling time: 80.3 ± 1.0 min
[2]; [20]
  Doubling time: 79.6 ± 9.0 min
[2]; [21]
  Doubling time: 65.1 ± 2.0 min
[2]; [22]
  Doubling time: 62.1 ± 2.2 min
[2]; [23]
  Doubling time: 58.3 ± 5.5 min
[2]; [24]
  Doubling time: 66.8 ± 4.5 min
[2]; 0.5 µg/ml LL-37, base MM
  Doubling time: 77.1 ± 5.3 min
[3]
  TcdA levels, fold decrease: about 3 fold
[4]
  cstA (CD630_26000) relative expression: 1.3 ± 0.2
  grdA (CD630_23520) relative expression: 1.6 ± 0.2
  mtlA (CD630_23340) relative expression: 0.7 ± 0.4
  sigT (csfT; CD630_06770) relative expression: 1.2 ± 0.2
  sigU (csfU; CD630_18870) relative expression: 0.8 ± 0.1
  vanZ1 (CD630_12400) relative expression: 0.6 ± 0.1
[5]; [19]
  Doubling time: 91.5 ± 5.7 min
[5]; [20]
  Doubling time: 90.7 ± 7.9 min
[5]; [21]
  Doubling time: 70.2 ± 3.9 min
[5]; [22]
  Doubling time: 67.7 ± 4.9 min
[5]; [23]
  Doubling time: 69.9 ± 3.4 min
[5]; [24]
  Doubling time: 70.3 ± 5.5 min
[5]; 0.5 µg/ml LL-37, base MM
  Doubling time: 82.2 ± 5.1 min
[6]
  CD630_02840 relative expression: 602.6 ± 455.6
  cstA (CD630_26000) relative expression: 36.3 ± 21.3
  grdA (CD630_23520) relative expression: 1649.2 ± 814.6
  mtlA (CD630_23340) relative expression: 0.6 ± 0.2
[7]
  TcdA levels (in words): TcdA levels did not change
[8]
  growth (in words): grew better than the parent strain
[9]; [19]
  Doubling time: 83.6 ± 1.7 min
[9]; [20]
  Doubling time: 84.0 ± 6.7 min
[9]; [21]
  Doubling time: 69.8 ± 2.5 min
[9]; [22]
  Doubling time: 70.8 ± 4.8 min
[9]; [23]
  Doubling time: 66.4 ± 1.8 min
[9]; [24]
  Doubling time: 72.6 ± 3.1 min
[9]; 0.5 µg/ml LL-37, base MM
  Doubling time: 76.4 ± 2.6 min
[10]
  CD630_02840 relative expression: 2.2 ± 0.5
  cstA (CD630_26000) relative expression: 2.3 ± 0.5
  grdA (CD630_23520) relative expression: 1.4 ± 0.1
  mtlA (CD630_23340) relative expression: 1.2 ± 0.7
  sigT (csfT; CD630_06770) relative expression: 2.3 ± 1.1
  sigU (csfU; CD630_18870) relative expression: 2.0 ± 0.6
  vanZ1 (CD630_12400) relative expression: 13.4 ± 5.8
[11]
  Relative clnR expression: 530.1 ±110.5
[12]
  MIC: 15 µg/mL (≈ 3.34 µM)
[13]
  MIC: 15 µg/mL (≈ 3.34 µM)
[14]
  MIC: 15 µg/mL (≈ 3.34 µM)
[15]
  growth (in words): grew slightly better than the parent strain
[16]; [25]
  tcdA expression, fold increase: 4.6 fold
  tcdB expression, fold increase: 2.2 fold
[16]; [26]
  sigD fold-change in expression in LL-37: 0.95 ± 0.08
  tcdR fold-change in expression in LL-37: 1.47 ± 0.44
[16]; 2 µg/ml LL-37, normalized to 630∆erm in BHIS, mean of three replicates ± SEM, indicates CodY activity
  ilvC fold-change in expression in LL-37: 2.21 ± 0.20
[16]; LL-37, p < 0.05
  ilvC expression, fold increase: 2.2 fold
[17]
  CD630_02840 relative expression: 29.3 ± 18.8
  grdA (CD630_23520) relative expression: 16.5 ± 10.5
  iorA (CD630_23810) relative expression: 16.8 ± 8.4
  mtlA (CD630_23340) relative expression: 1.0 ± 0.3
  sigU (csfU; CD630_18870) relative expression: 10.5 ± 6.8
[18]; 0.5 µg/ml LL-37, MM + 30 mM NAG
  Doubling time: 111.1 ± 16.5 min
[18]; [20]
  Doubling time: 93.4 ± 12.2 min
[18]; [21]
  Doubling time: 80.4 ± 7.4 min
[18]; [22]
  Doubling time: 76.4 ± 5.4 min
[18]; [23]
  Doubling time: 75.6 ± 5.3 min
[18]; [24]
  Doubling time: 80.4 ± 8.3 min
[18]; 0.5 µg/ml LL-37, base MM, § p < 0.05 vs no LL-37
  Doubling time: 84.8 ± 4.5 min
